Laboratory results reported in patent US10745398B2, “2-(het)aryl-substituted fused heterocycle derivatives as pesticides” (Bayer CropScience Aktiengesellschaft, priority 2015, dated 2020).

Experiments:
[1] = test system: caterpillars of the armyworm (Spodoptera frugiperda); assay: Spodoptera frugiperda - spray test; format: in vivo; details: application rate 500 g/ha, maize leaf discs, after 7 days
Experimental: (§1) Solvent: 78.0 parts by weight of acetone • • 1.5 parts by weight of dimethylformamide
(§2) Emulsifier: alkylaryl polyglycol ether
(§3) To produce a suitable active compound preparation, 1 part by weight of active compound is dissolved with the stated parts by weight of solvent and made up with water containing an emulsifier concentration of 1000 ppm until the desired concentration is attained. To produce further test concentrations, the preparation is diluted with emulsifier-containing water.
Leaf discs of maize (Zea mays) are sprayed with an active compound preparation of the desired concentration and, after drying, populated with caterpillars of the armyworm (Spodoptera frugiperda).
After 7 days, the efficacy in % is determined. 100% means that all the caterpillars have been killed; 0% means that no caterpillar has been killed.

[2] = test system: larvae of the mustard beetle (Phaedon cochleariae); assay: Phaedon cochleariae - spray test; format: in vivo; details: application rate 500 g/ha, Chinese cabbage leaf discs, after 7 days
Experimental: as §1, §2, §3
After 7 days, the efficacy in % is determined. 100% means that all the beetle larvae have been killed; 0% means that no beetle larvae have been killed.

[3] = log P (neutral) by HPLC on reversed-phase column (C 18), EEC Directive 79/831 Annex V.A8; format: physicochemical; details: HPLC reversed-phase C 18, 55° C., neutral range pH 7.8, ammonium hydrogencarbonate/acetonitrile
[4] = test system: unfed adult cat fleas (Ctenocephalides felis); assay: Ctenocephalides felis - oral test; format: in vivo; details: application rate 100 ppm in citrated cattle blood, after 2 days
Experimental: (§4) Solvent: dimethyl sulphoxide
To produce a suitable active compound preparation, 10 mg of active compound are mixed with 0.5 ml of dimethyl sulphoxide. Dilution with citrated cattle blood gives the desired concentration.
About 20 unfed adult cat fleas (Ctenocephalides felis) are placed into a chamber which is closed at the top and bottom with gauze. A metal cylinder whose bottom end is closed with parafilm is placed onto the chamber. The cylinder contains the blood/active compound preparation, which can be imbibed by the fleas through the parafilm membrane.
After 2 days, the kill in % is determined. 100% means that all of the fleas have been killed; 0% means that none of the fleas have been killed.

[5] = test system: L1 larvae of the Australian sheep blowfly (Lucilia cuprina); assay: Lucilia cuprina test; format: in vivo; details: application rate 100 ppm, after 2 days
Experimental: as §4
To produce a suitable active compound preparation, 10 mg of active compound are mixed with 0.5 ml of dimethyl sulphoxide, and the concentrate is diluted with water to the desired concentration.
About 20 L1 larvae of the Australian sheep blowfly (Lucilia cuprina) are transferred into a test vessel containing minced horsemeat and the active compound preparation of the desired concentration.
After 2 days, the kill in % is determined. 100% means that all the larvae have been killed; 0% means that no larvae have been killed.

[6] = test system: engorged adult female cattle ticks (Boophilus microplus); assay: Boophilus microplus - injection test; format: in vivo; details: application rate 20 μg/animal, assessed after 7 days
Experimental: as §4
To produce a suitable active compound preparation, 10 mg of active compound are mixed with 0.5 ml of solvent and the concentrate is diluted with solvent to the desired concentration.
1 μl of the active compound solution is injected into the abdomen of 5 engorged adult female cattle ticks (Boophilus microplus). The animals are transferred into dishes and kept in a climate-controlled room.
Efficacy is assessed after 7 days by laying of fertile eggs. Eggs which are not visibly fertile are stored in a climate-controlled cabinet until the larvae hatch after about 42 days. An efficacy of 100% means that none of the ticks has laid any fertile eggs; 0% means that all the eggs are fertile.

[7] = test system: green peach aphid (Myzus persicae); assay: Myzus persicae - spray test; format: in vivo; details: application rate 500 g/ha, Chinese cabbage leaf discs, after 5-6 days
Experimental: Solvent: 78 parts by weight of acetone • • 1.5 parts by weight of dimethylformamide
as §2, §3
Discs of Chinese cabbage leaves (Brassica pekinensis) infested by all stages of the green peach aphid (Myzus persicae) are sprayed with an active compound preparation of the desired concentration.
After 5-6 days, the efficacy in % is determined. 100% means that all the aphids have been killed; 0% means that no aphids have been killed.

Structure (SMILES) | efficacy (caterpillars killed) [1] [%] | efficacy (beetle larvae killed) [2] [%] | log P (neutral) [3] | efficacy (kill in %) [4] [%] | efficacy (kill in %) [5] [%] | efficacy (no laying of fertile eggs) [6] [%] | efficacy (aphids killed) [7] [%] | chromatographic logP ([3]; reversed-phase HPLC column (C 18))
CCS(=O)(=O)c1ccc(-n2nnn(-c3ccccc3Cl)c2=O)nc1-c1nc2cc(C(F)(F)F)ncc2n1C [Example I-4] | 100 |  |  |  |  |  |  | 
CCS(=O)(=O)c1ccc(N2CCN(c3ccc(Cl)cc3)C2=O)nc1-c1nc2cc(C(F)(F)F)ncc2n1C [Example I-5] | 100 | 100 | Example I-5: logP (neutral): 3.86 ^1H-NMR(400.0 MHz, d6-DMSO): δ = |  |  |  |  | 
CCS(=O)(=O)c1ccc(-n2ccc(-c3ccc(Cl)cc3)n2)nc1-c1nc2cc(C(F)(F)F)ncc2n1C [Example I-6] | 83 | 100 | Example I-6: logP (neutral): 4.62 ^1H-NMR(400.0 MHz, d6-DMSO): δ = | 90 | 100 |  |  | 
CCS(=O)(=O)c1ccc(-n2cc(-c3ncccc3Cl)cn2)nc1-c1nc2cc(C(F)(F)F)ncc2n1C [Example I-7] | 100 | 100 | Example I-7: logP (neutral): 3.66 ^1H-NMR(400.0 MHz, d6-DMSO): δ = | 100 | 100 |  |  | 
CCS(=O)(=O)c1ccc(-n2cc(-c3ccccc3)cn2)nc1-c1nc2cc(C(F)(F)F)ncc2n1C [Example I-9] | 100 | 100 | Example I-9: logP (neutral): 3.92 ^1H-NMR(400.0 MHz, d6-DMSO): δ = |  |  |  |  | 
CCS(=O)(=O)c1ccc(-n2cc(-c3ccc(Cl)cc3)cn2)nc1-c1nc2cc(C(F)(F)F)ncc2n1C [Example I-10] |  | 100 | Example I-10: logP (neutral): 4.33 ^1H-NMR(400.0 MHz, d6-DMSO): δ = |  |  |  |  | 
CCS(=O)(=O)c1ccc(-n2cc(-c3ccc(F)cc3)cn2)nc1-c1nc2cc(C(F)(F)F)ncc2n1C [Example I-11] |  | 100 | Example I-11: logP (neutral): 4.17 ^1H-NMR(400.0 MHz, d6-DMSO): δ = |  |  |  |  | 
CCS(=O)(=O)c1ccc(-n2cc(-c3cccc(Br)c3)cn2)nc1-c1nc2cc(C(F)(F)F)ncc2n1C [Example I-12] | 100 | 100 | Example I-12: logP (neutral): 4.48 ^1H-NMR(400.0 MHz, d6-DMSO): δ = | 100 | 100 | 90 |  | 
CCS(=O)(=O)c1ccc(-n2ccc(-c3ccccc3Cl)n2)nc1-c1nc2cc(C(F)(F)F)ncc2n1C [Example I-13] |  | 100 | Example I-13: logP (neutral): 4.58 ^1H-NMR(400.0 MHz, d6-DMSO): δ = |  |  |  |  | 
CCS(=O)(=O)c1ccc(-n2ccc(-c3ccco3)n2)nc1-c1nc2cc(C(F)(F)F)ncc2n1C [Example I-14] |  |  | Example I-14: logP (neutral): 3.47 1H-NMR(601.6 MHz, d6-DMSO): □ = |  |  |  |  | 
CCS(=O)(=O)c1ccc(-n2cnn(-c3c(F)cccc3F)c2=O)nc1-c1nc2cc(C(F)(F)F)ncc2n1C [Example I-20] |  |  | Example I-20: logP (neutral): 3.13 1H-NMR(400.0 MHz, d6-DMSO): □ = |  |  |  |  | 
CCS(=O)(=O)c1ccc(-n2nnn(-c3ccc(Cl)cc3)c2=O)nc1-c1nc2cc(C(F)(F)F)ncc2n1C [Example I-21] | 100 | 100 | Example I-21: logP (neutral): 3.71: 1H-NMR(400.0 MHz, d6-DMSO): □ = | 80 | 100 |  |  | 
CCS(=O)(=O)c1ccc(-n2nc(C(F)(F)F)n(-c3ccccc3)c2=O)nc1-c1nc2cc(C(F)(F)F)ncc2n1C [Example I-22] | 100 | 100 |  |  |  |  |  | 
CCS(=O)(=O)c1ccc(-n2ccc(-c3cccc(Cl)c3)n2)nc1-c1nc2cc(C(F)(F)F)ncc2n1C [Example I-23] | 100 | 100 | Example I-23: logP (neutral): 4.64 1H-NMR(400.0 MHz, d6-DMSO): □ = | 100 | 100 |  |  | 
CCS(=O)(=O)c1ccc(-n2cc(Cl)c(-c3ccc(F)c(Cl)c3)n2)nc1-c1nc2cc(C(F)(F)F)ncc2n1C [Example I-25] |  | 100 | Example I-25: logP (neutral): 5.23 1H-NMR(400.0 MHz, d6-DMSO): □ = |  |  |  |  | 
CCS(=O)(=O)c1ccc(-n2cnc(-c3ccccn3)n2)nc1-c1nc2cc(C(F)(F)F)ncc2n1C [Example I-26] | 100 | 100 | Example I-26: logP (neutral): 2.43 1H-NMR(400.0 MHz, d6-DMSO): □ = |  |  |  | 90 | 
CCS(=O)(=O)c1ccc(-n2cnc(-c3cccnc3)n2)nc1-c1nc2cc(C(F)(F)F)ncc2n1C [Example I-27] | 100 | 100 | Example I-27: logP (neutral): 2.54 1H-NMR(400.0 MHz, d6-DMSO): □ = |  |  |  |  | 
CCS(=O)(=O)c1ccc(-c2cnn(-c3ccccc3F)c2)nc1-c1nc2cc(C(F)(F)F)ncc2n1C [Example I-28] | 100 | 100 | Example I-28: logP (neutral): 3.38 1H-NMR(400.0 MHz, d6-DMSO): □ = | 100 | 100 |  |  | 
CCS(=O)(=O)c1ccc(-c2cc(-c3ccccc3)no2)nc1-c1nc2cc(C(F)(F)F)ncc2n1C [Example I-31] | 100 |  | Example I-31: logP (neutral): 3.81 1H-NMR(400.0 MHz, d6-DMSO): □ = |  |  |  |  | 
CCS(=O)(=O)c1ccc(-n2cnn(-c3ccccc3F)c2=O)nc1-c1nc2cc(C(F)(F)F)ccc2n1C [Example I-34] | 100 | 100 |  |  |  |  |  | 
CCS(=O)(=O)c1ccc(-n2cnn(-c3ccccc3F)c2=O)nc1-c1cn2cnc(C(F)(F)F)cc2n1 [Example I-35, 4-{5-(Ethylsulfonyl)-6-[7-(trifluoromethyl)imidazo[1,2-c]pyrimidine-2-yl]pyridin-2-yl}-2-(2-fluorophenyl)-2,4-dihydro-3H-1,2,4-triazol-3-one] | 100 | 100 |  |  |  |  |  | 3.16
